Measured values reported in ChEMBL document CHEMBL1138100 (Bioorg Med Chem Lett, 2006).
pIC50: −log10 of the molar value.

Key:
[1] = molecular target: Inosine-5'-monophosphate dehydrogenase 1 (Homo sapiens, UniProt P20839); assay: Inhibition of human IMPDH1
[2] = molecular target: Inosine-5'-monophosphate dehydrogenase (IMPDH) (Homo sapiens) (UniProt P20839+P12268); assay: Selectivity for IMPDH1 over IMPDH2; assay type: protein assay
[3] = molecular target: Inosine-5'-monophosphate dehydrogenase 2 (Homo sapiens, UniProt P12268); assay: Inhibition of human IMPDH2

Inosine-5'-monophosphate dehydrogenase (IMPDH) (Homo sapiens), sequence (P20839 whole entry, looked up, other chains not shown): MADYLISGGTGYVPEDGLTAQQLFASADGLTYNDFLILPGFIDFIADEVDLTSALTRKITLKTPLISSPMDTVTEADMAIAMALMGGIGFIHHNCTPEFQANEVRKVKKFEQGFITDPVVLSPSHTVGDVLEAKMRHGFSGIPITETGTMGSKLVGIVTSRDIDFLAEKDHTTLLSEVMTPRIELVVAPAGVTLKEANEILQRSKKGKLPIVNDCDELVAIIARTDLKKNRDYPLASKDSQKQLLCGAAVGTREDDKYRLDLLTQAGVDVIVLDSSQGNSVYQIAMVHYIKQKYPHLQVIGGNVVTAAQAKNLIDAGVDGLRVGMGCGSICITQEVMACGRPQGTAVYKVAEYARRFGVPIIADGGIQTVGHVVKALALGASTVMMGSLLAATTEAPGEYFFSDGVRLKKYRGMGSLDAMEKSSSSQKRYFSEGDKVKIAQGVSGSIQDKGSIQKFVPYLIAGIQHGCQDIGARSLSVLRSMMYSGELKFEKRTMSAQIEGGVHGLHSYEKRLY
Inosine-5'-monophosphate dehydrogenase 1, sequence (P20839 whole entry): as the sequence (P20839 whole entry, looked up, other chains not shown) above

Compound	pIC50 [1]	Selectivity ratio [2]	pIC50 [3]
CCc1c(C)c2c(c(O)c1C/C=C(\C)CNCCP(=O)(O)O)C(=O)OC2	7.43	2.8	7.89
COc1c(C)c2c(c(O)c1CC=C(C)C)C(=O)OC2			6.60
COc1c(C)c2c(c(O)c1C/C=C(\C)CP(=O)(O)O)C(=O)OC2			6.77
COc1c(C)c2c(c(O)c1C/C=C(\C)CN(C=O)CCP(=O)(O)O)C(=O)OC2			6.13
COc1c(C)c2c(c(O)c1C/C=C(\C)CNCP(=O)(O)O)C(=O)OC2			< 6.00
COc1c(C)c2c(c(O)c1C/C=C(\C)CCP(=O)(O)O)C(=O)OC2			7.02
CCc1c(C)c2c(c(O)c1C/C=C(\C)CP(=O)(O)O)C(=O)OC2	7.15	3.6	7.70
COc1c(C)c2c(c(O)c1C/C=C(\C)CP(=O)(OC)OC)C(=O)OC2			6.54
COc1c(C)c2c(c(O)c1C/C=C(\C)CN(CCP(=O)(O)O)C(C)=O)C(=O)OC2			6.11
CCc1c(C)c2c(c(O)c1C/C=C(\C)CN(C)CCP(=O)(O)O)C(=O)OC2			6.88

Other lines, results leading:

pIC50 [1]	Selectivity ratio [2]	pIC50 [3]	Compound
7.49			COc1c(C)c2c(c(O)c1C/C=C(\C)CCC(=O)O)C(=O)OC2 [MYCOPHENOLIC ACID]
		6.30	COc1c(C)c2c(c(O)c1C/C=C(\C)CN(CCP(=O)(O)O)S(C)(=O)=O)C(=O)OC2
		7.62	CCc1c(C)c2c(c(O)c1C/C=C(\C)CN(CCP(=O)(O)O)S(N)(=O)=O)C(=O)OC2
		6.30	COc1c(C)c2c(c(O)c1C/C=C(C)/C=C/P(=O)(O)O)C(=O)OC2
		6.56	COC/C(C)=C/Cc1c(O)c2c(c(C)c1OC)COC2=O
		6.61	COc1c(C)c2c(c(O)c1C/C=C(\C)COCP(=O)(O)O)C(=O)OC2
		7.03	COc1c(C)c2c(c(O)c1C/C=C(\C)CN(CCP(=O)(O)O)S(N)(=O)=O)C(=O)OC2
		7.07	COc1c(C)c2c(c(O)c1C/C=C(\C)CCCP(=O)(O)O)C(=O)OC2
		7.17	CCc1c(C)c2c(c(O)c1C/C=C(\C)CN(CCP(=O)(O)O)S(C)(=O)=O)C(=O)OC2
7.42	1.7	7.64	CCc1c(C)c2c(c(O)c1C/C=C(\C)COCP(=O)(O)O)C(=O)OC2
		< 6.00	CCOP(=O)(CCNC/C(C)=C/Cc1c(O)c2c(c(C)c1OC)COC2=O)OCC
		< 6.00	COc1c(C)c2c(c(O)c1C/C=C(\C)CN(C)CCP(=O)(O)O)C(=O)OC2
		6.30	COc1c(C)c2c(c(O)c1C/C=C(\C)CNCCP(=O)(O)O)C(=O)OC2
